Reference: patent US20110028561A1, “PROTECTION OF NEURAL RETINA BY REDUCTION OF ROD METABOLISM” (CHILDREN'S MEDICAL CENTER CORPORATION, priority 2008, published 2011)
“Also recorded” adds a separate entry of the source.

Tests used:
[1] = system: rats with oxygen-induced retinopathy (OIR); test: Electroretinography in rats with oxygen-induced retinopathy (Example 1); assay type: in vivo, rat (Sprague-Dawley)
Source text: Rats with oxygen-induced retinopathy (OIR) are a common model of human retinopathy of prematurity (ROP). Both OIR and ROP are characterized by abnormal retinal vasculature and by lasting dysfunction of the neural retina. Recent findings in OIR rats imply a causal role for the rods in the ROP disease process. However, experimental manipulation of rod function is necessary to establish this role conclusively. The retinoid composition N-Retinylacetamide (all trans), of chemical composition C22H33NO “the drug” was administered in the rat OIR model of ROP.
OIR was induced in four litters of Sprague-Dawley pups (N=24) by exposure to alternating periods of 50% and 10% oxygen from the day of birth (P0) to P14. The light cycle was 12 hr light (10-30 lux) and 12 hr dark; the light-to-dark transition coincided with each oxygen alternation. For 15 days beginning P7, within one hour of this transition, the first and fourth litters were administered 6 mg/kg drug IP; the second and third litters received only vehicle. At P20-22, when marked retinal vascular abnormality is generally observed, electroretinograms were recorded and receptor and post-receptor function evaluated. Treatment effects were evaluated by ANOVA.

[2] = system: rats with oxygen-induced retinopathy (OIR); test: ERG of rod and rod-mediated neural function in the dark-adapted retina of OIR rats (Example 2); assay type: in vivo, rat (Sprague-Dawley); conditions: for magnitude of the rod response (Rmp3): p<0.001, most markedly at P30-32, vs vehicle; for recovery from phototransduction, latency to 50% recovery τ: double-flash paradigm
Procedure: (§1) Retinopathy was induced in Sprague-Dawley pups (N=46) by exposing them to alternating 24 hour periods of 50±1% and 10±1% oxygen from the day of birth to postnatal day (P) 14 as shown in FIG. 1. The light cycle was controlled at 12 hours 10-30 lux and 12 hours dark, except during test days when constant darkness was maintained. The light-to-dark transition was timed to coincide with each oxygen alternation. For two weeks, beginning on P7, during this transition, the first and fourth litters were injected intraperitoneally with 6 mg*kg-1 Ret-NH2; the second and third litters were administered an equivalent volume of vehicle (20% dimethyl sulfoxide, DMSO) alone. The injection schedule was designed to continue over the age range that begins with the onset of rapid increase in the rhodopsin content of the retina and lasts until rhodopsin content exceeds 50% of its adult amount (A. B. Fulton, and B. N. Baker, Invest Ophthalmol Vis Sci (1984) 25:647). […] The rats were assessed following a longitudinal design with tests at P20-22, P30-32, and P60-62. These dates were selected because they capture the height of vascular abnormality, a period of marked recovery, and an adult age, respectively (J. D. Akula, et al., Invest Ophthalmol Vis Sci (2007) 48:4351). At each test age, we studied the function of the neural retina and the morphology of the retinal vasculature using noninvasive techniques.
Shortly (0-2 days) after the final dose, the effects of the drug were assessed on the neural retina by electroretinography (ERG). The timing and intensity of the stimuli, which was designed to assess rod photoreceptor and rod-mediated post-receptor neural function, were under computer control. Two sets of experiments were performed. In the first, rod and rod-mediated neural function in the dark-adapted retina were assessed. In the second, the recovery of the rod photoreceptor from a bright, rhodopsin-bleaching stimulus was assessed. Each set of experiments was performed on approximately half of the subjects from each litter.
Sample traces were recorded these from a P30-32 VCM-treated rat; the sample records in panels D, E, and G were recorded in the same session. Characteristics of the rod photo-response were estimated from the ERG by fitting the Hood and Birch (D. C. Hood, and D. G. Birch, Vis Neurosci (1992) 8:107) formulation of the Lamb and Pugh (T. D. Lamb, and E. N. Pugh, Jr., J Physiol (1992) 449:719; E. N. Pugh, Jr., and T. D. Lamb, Biochim Biophys Acta (1993) 1141:111) model of the biochemical processes involved in the activation of photo-transduction to the a-wave:
P3(i,t)=Rmp3·(1−exp(−½·i·S·(t−td)^2))
In this equation, i is the intensity of the flash (R*) and t is elapsed time (seconds). The free parameters in the model, Rmp3, S, and td, were ensemble fitted using a square error minimization routine. Rmp3 is the amplitude (μV) of the saturated rod response; it is proportional to the magnitude of the dark current and depends upon the number of channels available for closure by light in the ROS (T. D. Lamb, and E. N. Pugh, Jr., J Physiol (1992) 449:719; E. N. Pugh, Jr., and T. D. Lamb, Biochim Biophys Acta (1993) 1141:111). S is a sensitivity (R*-1*sec-2) parameter that is related to the amplification constant, A, which summarizes the kinetics of the series of processes initiated by the photoisomerization of rhodopsin and resulting in closure of the channels in the plasma membrane of the photoreceptor. td is a brief delay (sec). Fitting of the model was restricted to the leading edge of the a-wave.
Following the study of the activation of phototransduction, deactivation of phototransduction was studied in the same rats using a double-flash paradigm. The time course of the rod response was derived to a green conditioning flash (CF) producing approximately 75 R*. This green flash, while producing an a-wave less than half of the saturated rod response, was nevertheless sufficient to fully suppress the dark current. […]

[3] = system: rats with oxygen-induced retinopathy (OIR); test: Recovery of the rod dark current from a rhodopsin-bleaching stimulus in OIR rats (Example 2); assay type: in vivo, rat (Sprague-Dawley); conditions: 30 second bleaching exposure, 6 mg/kg IP, vs vehicle, t50 often extrapolated
Procedure: Retinopathy was induced in Sprague-Dawley pups (N=46) by exposing them to alternating 24 hour periods of 50±1% and 10±1% oxygen from the day of birth to postnatal day (P) 14 as shown in FIG. 1. The light cycle was controlled at 12 hours 10-30 lux and 12 hours dark, except during test days when constant darkness was maintained. The light-to-dark transition was timed to coincide with each oxygen alternation. For two weeks, beginning on P7, during this transition, the first and fourth litters were injected intraperitoneally with 6 mg*kg-1 Ret-NH2; the second and third litters were administered an equivalent volume of vehicle (20% dimethyl sulfoxide, DMSO) alone. […] The rats were assessed following a longitudinal design with tests at P20-22, P30-32, and P60-62. […]
Shortly (0-2 days) after the final dose, the effects of the drug were assessed on the neural retina by electroretinography (ERG). […] In the first, rod and rod-mediated neural function in the dark-adapted retina were assessed. In the second, the recovery of the rod photoreceptor from a bright, rhodopsin-bleaching stimulus was assessed. […]
In the second set of experiments, performed on cohorts (n=22), the recovery of the dark current was assessed from a 30 second light exposure estimated to bleach […] of rhodopsin. […] Following the bleaching exposure, the response to the PF was assessed at two minute intervals for 40-50 minutes. […]

[4] = system: rats with oxygen-induced retinopathy (OIR); test: Arteriolar tortuosity from fundus images analysed with RISA in OIR rats (Example 2); assay type: in vivo, rat (Sprague-Dawley)
Procedure: as §1
To assess whether VCM treatment affected the retinal vasculature, wide-field images of the ocular fundus were obtained that show the major vessels of the retina following each ERG session. […] The arterioles were analyzed with RISA (R. Gelman, M. E. Invest Ophthalmol Vis Sci (2005) 46: 4734) custom image analysis software. In agreement with previous reports (J. D. Akula, Invest Ophthalmol Vis Sci (2007) 48:4351; K. Liu, et al., Invest Ophthalmol Vis Sci (2006) 47:2639), the venules were little affected by the induction of retinopathy. […] For each rat, the mean blood vessel integrated curvature across both eyes (median 10 arterioles) was determined to provide a measure of arteriolar tortuosity, TA (radians*pixel^−1), a measure which agrees well with subjective assessments in human subjects (R. Gelman, M. E. Invest Ophthalmol Vis Sci (2005) 46: 4734). […] To test this, the value of TA at P20 was subtracted from the value of TA at P60 in each rat to determine the change in arteriolar tortuosity during the course of the experiment.

[5] = system: visual cycle; conditions: mouse, dose 6 mg/kg; cited from earlier work
[6] = OIR rats, 6 mg/kg IP for 15 days from P7, ERG at P20-22, vs vehicle

## CC(=O)NC/C=C(C)/C=C/C=C(C)/C=C/C1=C(C)CCCC1(C)C [N-Retinylacetamide, N-Retinylacetamide (all trans)]
[1]; OIR rats after treatment, 6 mg/kg IP
  serious, negative alteration of the photoreceptor response: no evidence of serious, negative alteration
[1]; OIR rats, 6 mg/kg IP
  effect on responses originating in the inner retina: favorable effect
[1]; [6]
  amplification constant of phototransduction: Neither the maximal rod response nor the amplification constant of phototransduction were significantly changed
  maximal rod response: Neither the maximal rod response nor the amplification constant of phototransduction were significantly changed
[1]; OIR rats, 6 mg/kg IP, P20-22, vs vehicle
  post-receptor sensitivity (log s): unchanged
[1]; background that suppressed the saturating a-wave by ~90%, drug-treated vs vehicle-treated OIR rats, P20-22
  OFF response to a 400 ms stimulus: 2 ×
[1]; double-flash protocol, OIR rats, 6 mg/kg IP, P20-22, vs vehicle
  time-constant of deactivation of phototransduction: significantly shorter
[1]; drug-treated vs vehicle-treated OIR rats, 6 mg/kg IP, P20-22
  maximal scotopic b-wave amplitude: twice as large
[1]; same background, drug-treated vs vehicle-treated OIR rats, P20-22
  cone-driven response to 20 Hz flicker: 2 ×
[2]; 6 mg/kg IP
  unfavorable effects of rod function: No unfavorable effects
[2]; 6 mg/kg IP two weeks from P7, tests P20-22, P30-32, P60-62, ANOVA vs vehicle, listed as VCM, 6 mg/kg
  rod response sensitivity (S): no statistically significant effect; also recorded: not significant, but did trend lower at every age
[2]; 6 mg/kg IP, listed as Ret-NH2, 6 mg/kg
  magnitude of the rod response (Rmp3): larger
[2]; 6 mg/kg IP, listed as VCM, 6 mg/kg
  magnitude of the rod response (Rmp3): significantly increased
[2]; ERG b-wave, Naka-Rushton fit, 6 mg/kg IP, vs vehicle
  post-receptor sensitivity (log σ): not affected
[2]; ERG b-wave, Naka-Rushton fit, 6 mg/kg IP, vs vehicle, listed as Ret-NH2, 6 mg/kg
  saturated amplitude of the b-wave (Vm): larger
[2]; ERG b-wave, Naka-Rushton fit, 6 mg/kg IP, vs vehicle, listed as VCM, 6 mg/kg
  saturated amplitude of the b-wave (Vm): significantly (p<0.01) increased
[2]; P20-22 and P30-32
  rod-mediated retinal function (photoreceptor and post-receptor neurons): improved at the earliest test age (P20-22), and even more markedly improved at the second (P30-32)
[2]; 6 mg/kg IP, vs vehicle, listed as Ret-NH2, 6 mg/kg
  recovery from phototransduction, latency to 50% recovery τ: faster recovery
[2]; 6 mg/kg IP, vs vehicle, listed as VCM, 6 mg/kg
  recovery from phototransduction, latency to 50% recovery τ: significantly (p<0.01) faster
[2]; summary of ERG data
  effect on rod function: advantageous, if transient, effect
  post-receptor function: transient enhancement
[3]
  time to 50% recovery of the saturating rod photo-response after bleach (t50): not significantly altered overall
[4]; OIR rats, 6 mg/kg IP, P20-22 to P60-62, vs vehicle
  arteriolar tortuosity TA, main effect: no main effect
[4]; OIR rats, VCM regimen 6 mg/kg IP
  appearance of vascular abnormalities: did not prevent the appearance of vascular abnormalities
[4]; TA at P60 minus TA at P20, t-test p=0.001
  change in arteriolar tortuosity ΔP60-P20 (vascular recovery): more than twice the normal amount
[4]; group x age interaction p=0.002, VCM vs vehicle treated rats
  recovery of arteriolar tortuosity TA: recovered more rapidly
[5]
  suppression of the visual cycle: approximately 50%
